The conditions of data set [1]: Crystal; DTA.
Data set [2] is described as follows: Molar enthalpy of transition or fusion. The following applies: Crystal; DSC.

SMILES strings stand for the structures. ± gives the expanded uncertainty stated by the source.

Regarding `NC(=O)CN1CC(O)CC1=O` (configuration not stated) [4-hydroxy-2-oxo-1-pyrrolidineacetamide], in data set [1], the Normal melting temperature is 172.13 ± 0.61 °C. Besides, the “Molar enthalpy of transition or fusion” value in data set [2] stood at 8.29 ± 0.335 kcal/mol.

Values taken from the NIST ThermoML archive (doi:10.1016/j.jct.2015.11.007).
